Test results taken from patent publication US5380759A, “Methyl N-[6-(3,4,5-trimethoxybenzloxy)imidazo[1,2-b]pyridazin-2-zyl]carbamate used to treat leukemia” (priority 1987, dated 1995).

Key:
P388/O tumour = assay: Lymphocytic leukaemia P388/O test; assay type: in vivo, mouse; settings: 10 mg/kg i.p. days 1, 5 and 9
Procedure: C. Lymphocytic Leukemia P388/O Test
(§1) CD2-F1 mice, of the same sex, weighing within a 3 gram range surrounding 20 g, are used for this test. Control and test animals are injected intraperitoneally with a suspension of 10^6 viable P388/O tumour cells on day 0. In each test several dose levels which bracket the LD20 for the compound are evaluated; each dose level group contains 6 animals. The test compounds are prepared either in physiologic saline containing 0.05% Tween 80 or distilled water containing 5% dextrose and are administered intraperitoneally on days 1,5 and 9 relative to tumour implant. Doses are on a mg/kg basis according to individual animals' body weights. The day of death for each animal is recorded and the median day of death identified for each group. The difference between the median survival time for treated and control groups is expressed as a percentage increase in life span (% ILS).

P388/ADR = assay: In vivo activity against drug resistant tumour P388/ADR; parameters: species or system mouse; settings: optimum dose 10.0 mg/kg
Procedure: as §1
(§2) E. Activity Against Drug-Resistant Tumours
(§3) Using a similar procedure to the Lymphocytic Leukaemia P388/O test, the compound of Example 1 was evaluated against P388/O tumours which had been made resistant to the following standard, clinically used anti-tumour agents: […]

P388/5FU = assay: In vivo activity against drug resistant tumour P388/5FU; parameters: species or system mouse; settings: optimum dose 10.0 mg/kg
Procedure: as §1, §2, §3

L1210 = assay: In vivo activity against murine tumour L1210; parameters: species or system mouse

For `COC(=O)Nc1cn2nc(OCc3cc(OC)c(OC)c(OC)c3)ccc2n1` [Example 1, Methyl N-[6-(3,4,5-trimethoxybenzyloxy)imidazo[1,2-b]pyridazin-2-yl]carbamate], the “30 Day survivors” value (P388/O tumour) was 6/6, the “60 Day Survivors” value (P388/O tumour) was 2/6 and the ILS at 10 mg/kg (P388/O tumour; Mus musculus, P388, ip) was 300%. For the same compound, the “60 Day Survivors” value (P388/ADR) was 0/6, the “% ILS” value (P388/ADR) was “+90%” and the “60 Day Survivors” value (P388/5FU) was 0/6. The “% ILS” value (P388/5FU) was “+92%”, the “Mean % ILS (±SEM)” value (L1210; 10 mg/kg i.p. days 1, 5 and 9, 2 expts) was 134 (±72) % and the “activity in vivo against L1210 leukaemia” value (L1210; in words) was “good activity”.
